Legend:
[1] = Neuroprotective activity against 0.1 uM amyloid beta 42-induced toxicity in rat PC12 cells assessed as cell viability at 10 uM after 24 hrs by MTT assay; assay type: functional, PC-12
[2] = Neuroprotective activity against 0.1 uM amyloid beta 42-induced toxicity in rat PC12 cells assessed as cell viability after 24 hrs by MTT assay; assay type: functional, cell-based; settings: PC-12, 24 h
[3] = Neuroprotective activity against 0.1 uM amyloid beta 42-induced toxicity in rat PC12 cells assessed as cell viability at 50 uM after 24 hrs by MTT assay; assay type: functional, PC-12

Compound | Activity [1] [%] | EC50 [2] [µM] | Activity [3] [%]
COc1cc(O)c2c(=O)cc(-c3ccc(OC)c(-c4c(OC)cc(O)c5c(=O)cc(-c6ccc(O)cc6)oc45)c3)oc2c1 | 65.3 |  | 
COc1ccc(-c2cc(=O)c3c(O)cc(O)cc3o2)cc1-c1c(O)cc(O)c2c(=O)cc(-c3ccc(O)cc3)oc12 [BILOBETIN] | 44.7 |  | 
COc1ccc(-c2cc(=O)c3c(O)cc(O)c(-c4cc(-c5cc(=O)c6c(O)cc(O)cc6o5)ccc4O)c3o2)cc1 [PODOCARPUSFLAVONE A] | 49.3 |  | 
COc1cc(O)c2c(=O)cc(-c3ccc(O)c(-c4c(OC)cc(O)c5c(=O)cc(-c6ccc(O)cc6)oc45)c3)oc2c1 | 52.6 |  | 
COc1ccc(-c2cc(=O)c3c(O)cc(OC)c(-c4cc(-c5cc(=O)c6c(O)cc(OC)cc6o5)ccc4OC)c3o2)cc1 | 49.9 |  | 
COc1cc(O)c2c(=O)cc(-c3ccc(Oc4c(OC)cc5oc(-c6ccc(O)cc6)cc(=O)c5c4O)cc3)oc2c1 | 55.5 |  | 
COc1ccc(-c2cc(=O)c3c(O)cc(O)c(-c4cc(-c5cc(=O)c6c(O)cc(OC)cc6o5)ccc4OC)c3o2)cc1 [SCIADOPITISIN] | 83.1 | 9.84 | 100
COc1cc(O)c2c(=O)cc(-c3ccc(O)cc3)oc2c1-c1cc(-c2cc(=O)c3c(O)cc(O)cc3o2)ccc1O [SOTETSUFLAVONE] | 34.2 |  | 
COc1cc2oc(-c3ccc(O)cc3)cc(=O)c2c(O)c1Oc1ccc(-c2cc(=O)c3c(O)cc(O)cc3o2)cc1 | 65.7 |  | 
COc1ccc(-c2cc(=O)c3c(O)cc(OC)c(-c4c(OC)cc(O)c5c(=O)cc(-c6ccc(OC)cc6)oc45)c3o2)cc1 | 46.7 |  | 
COc1ccc(-c2cc(=O)c3c(O)cc(OC)c(-c4cc(-c5cc(=O)c6c(O)cc(O)cc6o5)ccc4O)c3o2)cc1 [7'',4'''-dimethylamentoflavone] | 55.3 |  | 
O=C(O[C@@H]1Cc2c(O)cc(O)cc2O[C@@H]1c1cc(O)c(O)c(O)c1)c1cc(O)c(O)c(O)c1 [EPIGALOCATECHIN GALLATE] | 49.5 |  | 
O=c1cc(-c2ccc(O)cc2)oc2cc(O)cc(O)c12 [APIGENIN] | 41 |  | 
O=c1cc(-c2ccc(O)c(-c3c(O)cc(O)c4c(=O)cc(-c5ccc(O)cc5)oc34)c2)oc2cc(O)cc(O)c12 [AMENTOFLAVONE] | 37.6 |  | 
COc1cc2oc(-c3ccc(O)cc3)cc(=O)c2c(O)c1-c1cc(-c2cc(=O)c3c(O)cc(O)cc3o2)ccc1O | 38.5 |  | 
COc1ccc(-c2cc(=O)c3c(O)cc(OC)c(-c4cc(-c5cc(=O)c6c(O)cc(OC)cc6o5)ccc4O)c3o2)cc1 [HEVEAFLAVONE] | 45.1 |  | 
COc1cc(O)c2c(=O)cc(-c3ccc(O)c(-c4c(O)cc(O)c5c(=O)cc(-c6ccc(O)cc6)oc45)c3)oc2c1 [SEQUOIAFLAVONE] | 39.3 |  | 
COc1ccc(-c2cc(=O)c3c(O)cc(OC)c(-c4cc(-c5cc(=O)c6c(O)cc(O)cc6o5)ccc4OC)c3o2)cc1 [KAYAFLAVONE] | 80.5 | 5.29 | 100
COc1ccc(-c2cc(=O)c3c(O)cc(O)c(-c4cc(-c5cc(=O)c6c(O)cc(OC)cc6o5)ccc4O)c3o2)cc1 [PODOCARPUSFLAVONE B] | 76.4 | 10.8 | 
COc1ccc(-c2cc(=O)c3c(O)cc(O)c(-c4cc(-c5cc(=O)c6c(O)cc(O)cc6o5)ccc4OC)c3o2)cc1 [ISOGINKGETIN] | 83.1 | 5.18 | 
COc1cc(O)c2c(=O)cc(-c3ccc(OC)c(-c4c(O)cc(O)c5c(=O)cc(-c6ccc(O)cc6)oc45)c3)oc2c1 [GINKGETIN] | 59.8 |  | 
O=c1cc(-c2ccc(O)cc2)oc2c(-c3c(O)cc(O)c4c(=O)cc(-c5ccc(O)cc5)oc34)c(O)cc(O)c12 [CUPRESSUFLAVONE] | 31.7 |  | 
O=c1cc(-c2ccc(Oc3c(O)cc4oc(-c5ccc(O)cc5)cc(=O)c4c3O)cc2)oc2cc(O)cc(O)c12 [HINOKIFLAVONE] | 38.7 |  | 
COc1ccc(-c2cc(=O)c3c(O)cc(O)cc3o2)cc1-c1c(OC)cc(O)c2c(=O)cc(-c3ccc(O)cc3)oc12 | 56.5 |  | 

Source: ChEMBL document CHEMBL3588767, “Inhibitory activities of biflavonoids against amyloid-β peptide 42 cytotoxicity in PC-12 cells” (Bioorg Med Chem Lett, 2015)
